{"source": "patent US20220062247A1", "about": "“USE OF A PAR-1 ANTAGONIST FOR THE TREATMENT OF A CHRONIC INFLAMMATORY INTESTINAL DISEASE” (CVASTHERA, priority 2018, published 2022)", "test_system": "inflammatory bowel disease, Dextran Sulphate sodium (DSS)", "assay": "Dextran Sulphate sodium (DSS) model of inflammatory bowel disease in mice (body weight, DAI, macroscopic damage score, MPO)", "assay_type": "in vivo, mice (C57B16)", "parameters": "Disease activity index, D1 / Disease activity index, D2 / Disease activity index, D3 / Disease activity index, D4 / Disease activity index, D5 / Disease activity index, D6 / Disease activity index, D7 / macroscopic damage score: scale not given here", "excerpt": "The purpose of this study is to assess the effectiveness of a PAR-1 antagonist according to the invention, 3-2-(chloro-phenyl)-1-[4-(4-fluoro-benzyl)-piperazine-1-yl]propenone (CSI) in a model of an inflammatory bowel disease, Dextran Sulphate sodium (DSS) in mice. This DSS model is described in the publication of Choi et al., 2010, in J. Biomed. Biotechnol., 2010:943516; doi: 10.1155/2010/943516.\nThis model features a cytokine profile Th1 in its acute phase, periods of remission and relapses, it is consequently very similar to ulcerous colitis. The DSS distributed in the drinking water can cause an inflammation of the digestive tract and produce colorectal tumours in the rodent. The DSS is widely used as an animal model of human inflammatory diseases of the digestive tract.\nThe present study is conducted in 7-week-old mice (C57B16). The 5-aminosalicylic acid serves as a positive comparative example.\nThe first day of the study starts with the daily administration of a beverage containing DSS at 5% p/p in water to the mice, until the day of sacrifice. The development of the disease is estimated on a daily basis, with accurate weighting of the mice, the assessment of the consistence of the excrements as well as the presence of blood in the faeces with the Hemoccult® paper test. The DAI score is calculated as indicated in Example 1.\nEach day, groups of mice receive per os CSI at different concentrations, or 5-aminosalicylic acid (5-ASA), or the vehicle alone, that is to say carboxymethyl cellulose (CMC) at 1%.\nThe mice are sacrificed 7 days after the beginning of the treatment. The colon is excised and the macroscopic damages are assessed. The colon is then cut into 4 pieces, the distal portion is placed in an Eppendorf tube and stored at −80° C. until the measurement of the activity of myeloperoxidase and the quantification of proteins. The proximal portion is kept in formaline at 10% for future histological analyses. The two other central portions are placed in Eppendorf tubes and stored at −80° C. for future analyses.\nOn day 7, after having sacrificed the animals, the colon is removed. The macroscopic damage score, assessed as described in Example 1, and the myeloperoxidase (MPO) activity are determined.", "key": {"[1]": {"settings": "DSS 5%, Group 5, 50 mg/kg/24 h per os, Moy"}, "[2]": {"settings": "DSS mice, 50 mg/kg daily oral (Group 5), all observed points"}}, "data": [{"smiles": "Nc1ccc(O)c(C(=O)O)c1", "note": "[5-ASA, 5-aminosalicylic acid, reference compound]", "values": [{"measurement": "Disease activity index, D1", "setting": "[1]", "result": 1.64}, {"measurement": "Disease activity index, D2", "setting": "[1]", "result": 1.25}, {"measurement": "Disease activity index, D3", "setting": "[1]", "result": 1.92}, {"measurement": "Disease activity index, D4", "setting": "[1]", "result": 3.50}, {"measurement": "Disease activity index, D5", "setting": "[1]", "result": 4.00}, {"measurement": "Disease activity index, D6", "setting": "[1]", "result": 4.00}, {"measurement": "Disease activity index, D7", "setting": "[1]", "result": 3.20}, {"measurement": "Variation of the body weight of the mice in comparison with day D0, D1-D0", "setting": "[1]", "result": 0.64, "unit": "g"}, {"measurement": "Variation of the body weight of the mice in comparison with day D0, D2-D0", "setting": "[1]", "result": 0.64, "unit": "g"}, {"measurement": "Variation of the body weight of the mice in comparison with day D0, D3-D0", "setting": "[1]", "result": 1.05, "unit": "g"}, {"measurement": "Variation of the body weight of the mice in comparison with day D0, D4-D0", "setting": "[1]", "result": -0.03, "unit": "g"}, {"measurement": "Variation of the body weight of the mice in comparison with day D0, D5-D0", "setting": "[1]", "result": -1.67, "unit": "g"}, {"measurement": "Variation of the body weight of the mice in comparison with day D0, D6-D0", "setting": "[1]", "result": -3.68, "unit": "g"}, {"measurement": "Variation of the body weight of the mice in comparison with day D0, D7-D0", "setting": "[1]", "result": -4.76, "unit": "g"}, {"measurement": "macroscopic damage score", "setting": "DSS 5%, Group 5, 50 mg/kg/24 h per os, day 7, Moy", "result": 6.5}, {"measurement": "MPO activity", "setting": "DSS 5%, Group 5, 50 mg/kg/24 h per os, day 7, colon, Moy", "result": 9.34, "unit": "mU/mg proteins"}, {"measurement": "macroscopic damage score", "setting": "DSS mice, 50 mg/kg (Group 5), vs vehicle group (Group 4)", "result": "significantly reduces"}, {"measurement": "increase of the disease activity index", "setting": "[2]", "result": "prevents neither"}, {"measurement": "weight loss", "setting": "[2]", "result": "prevents neither"}]}]}
